These results are taken from article PMC10383573, “New Imadazopyrazines with CDK9 Inhibitory Activity as Anticancer and Antiviral: Synthesis, In Silico, and In Vitro Evaluation Approaches” (Pharmaceuticals, 2023).

One series deals with MCF7 cancer cells. Put plainly: MTT cytotoxicity assay, MCF7. Type of series: cell-based. The settings on record: Homo sapiens, 48 h, means (SD) of three trials. On the procedure:
(§1) The cytotoxicity effect of the new compounds was assessed in an MTT assay against chronic myelogenous leukemia (K652), colorectal (HCT116), and breast (MCF7) cancer cell lines. […] The data is presented in Table 4 as IC50 values (in µM).
(§2) Cells were obtained from American Type Culture Collection. The cell culture DMEM was obtained from Life Technologies and Invitrogen and supplied with 10% FBS from Hyclone, 1% penicillin-streptomycin, and 10 µg/mL insulin from Sigma-Aldrich.
The MTT assay was used to monitor the in vitro cytotoxicity of our compounds. […] Then, the cells were incubated with 10% v/v reconstituted MTT at 37 °C for 3 h. The multiwell plates were then read using Wallac Victor2 1420 multilabel counter, and the absorbance was measured at a wavelength of 450 (ex) and 590 nm (em).
On the technique in general: Tetrazolium dyes change colour on reduction, which living cells bring about.

Another series has as its system HCT116 cancer cells. Briefly: MTT cytotoxicity assay, HCT116. Type of series: cell-based. The settings on record: Homo sapiens, HCT-116, 48 h, means (SD) of three trials. The method, then:
as §1, §2
(§3) The MTT assay was used to monitor the in vitro cytotoxicity of our compounds. […] Then, the cells were incubated with 10% v/v reconstituted MTT at 37 °C for 3 h.

For another series, the system named is K652 cancer cells. Put plainly: MTT cytotoxicity assay, K652. Type of series: cell-based. The settings on record: K652, 48 h, read-out: IC50 K652. On the procedure:
as §1, §2, §3

Series [1] relates to MCF7, HCT116, and K652 cancer cells. Put plainly: MTT cytotoxicity assay, average of the three cell lines. Type of series: cell-based. On the procedure:
as §1, §2, §3

Another series concerns FHC normal cells. Briefly: MTT assay against FHC normal cells. Type of series: cell-based. The settings on record: for IC50: MTT assay, normal noncancerous cells, read-out: FHC IC50; for SI (Selectivity Index) HCT116: FHC versus HCT116; for SI (Selectivity Index) K652: FHC versus K652; for SI (Selectivity Index) MCF7: FHC versus MCF7. The method, then:
as §3

Series [2] concerns human Coronavirus (HCoV-229E). Briefly: 229E inhibitory assay (cytopathic inhibition effect). Type of series: cell-based, human Coronavirus 229E. The settings on record: HCoV-229E; for IC50: cytopathic effect inhibition, read-out: IC50 229E inhibitory effect. On the procedure:
The antiviral effect of the compounds was examined in a human Coronavirus (HCoV-229E) inhibitory assay. The standard ribavirin (a well-established antiviral agent) was used as a positive control in this experiment.
The cytopathic inhibition effect was used to assess the antiviral and cytotoxicity of the compounds using a method described by Choi et al. (2009). Coronavirus 229E cells were used in this assay. The antiviral activity of the tested compounds was measured as a percentage using a method described by Pauwels et al.’s (1988) research. GraphPad Prism 5.0 software was used to analyze the results. Ribavirin was used as a positive standard in this assay, and DMSO was used as a negative standard.

In the next series the target is CDK9 (Homo sapiens, UniProt P50750). Briefly: In vitro CDK9 kinase assay (BPS Biosciences kit).
Series [3] can be described thus: Cytotoxicity on target cells in the antiviral assay. The settings on record: target cells of the HCoV-229E antiviral assay.

Structures are written as SMILES.

Sequence of CDK9 (P50750 whole entry): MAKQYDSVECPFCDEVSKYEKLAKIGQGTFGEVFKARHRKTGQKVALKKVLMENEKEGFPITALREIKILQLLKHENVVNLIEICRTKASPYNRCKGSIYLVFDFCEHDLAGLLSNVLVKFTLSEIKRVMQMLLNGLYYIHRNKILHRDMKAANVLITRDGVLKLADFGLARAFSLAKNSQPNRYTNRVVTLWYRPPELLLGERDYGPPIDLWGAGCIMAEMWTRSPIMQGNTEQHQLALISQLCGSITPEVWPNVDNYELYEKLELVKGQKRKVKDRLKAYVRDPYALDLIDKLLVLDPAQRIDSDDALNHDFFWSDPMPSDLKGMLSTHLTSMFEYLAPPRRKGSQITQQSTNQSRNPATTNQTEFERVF
Sequence of CDK9 (O60563 whole entry, further chain): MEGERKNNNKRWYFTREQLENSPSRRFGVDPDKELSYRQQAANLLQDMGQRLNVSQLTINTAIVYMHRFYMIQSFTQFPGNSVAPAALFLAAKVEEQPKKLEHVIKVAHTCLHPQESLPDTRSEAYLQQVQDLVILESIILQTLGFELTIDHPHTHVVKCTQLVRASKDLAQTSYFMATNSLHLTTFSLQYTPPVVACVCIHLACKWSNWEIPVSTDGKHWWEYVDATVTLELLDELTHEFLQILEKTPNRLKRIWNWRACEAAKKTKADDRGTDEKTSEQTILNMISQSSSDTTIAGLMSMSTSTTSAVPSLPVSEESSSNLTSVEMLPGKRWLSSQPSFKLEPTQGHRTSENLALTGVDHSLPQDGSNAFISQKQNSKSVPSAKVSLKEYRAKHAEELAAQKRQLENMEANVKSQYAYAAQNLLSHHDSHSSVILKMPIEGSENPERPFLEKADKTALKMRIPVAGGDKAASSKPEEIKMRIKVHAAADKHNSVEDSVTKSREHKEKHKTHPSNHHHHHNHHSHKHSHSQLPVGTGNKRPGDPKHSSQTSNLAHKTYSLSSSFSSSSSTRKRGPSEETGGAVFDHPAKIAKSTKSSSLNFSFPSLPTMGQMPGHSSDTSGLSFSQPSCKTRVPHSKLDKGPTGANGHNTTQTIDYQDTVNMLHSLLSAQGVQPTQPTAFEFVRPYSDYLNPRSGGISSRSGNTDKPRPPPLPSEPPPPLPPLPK
Experimental for CDK9: The in vitro kinase activity was measured using a CDK9 assay kit obtained from BPS Biosciences (San Diego, CA). The inhibitory effect of the tested compounds was assessed following the manufacturer’s instructions as indicated in the kit. GraphPad Prism 5.0 software was used to analyze the results.

Turning to `COc1ccc(Nc2c(-c3ccoc3)nc3cnccn23)cc1` [Compound 1d, 2-(Furan-3-yl)-N-(4-methoxyphenyl) imidazo[1,2-a] pyrazin-3-amine], the IC50 was 12.3 ± 0.17 µM in the series with MCF7 cancer cells; 10.7 ± 0.16 µM in the series on HCT116 cancer cells; 11.8 ± 0.19 µM in the series on K652 cancer cells; 11.6 µM in series [1]; 187 ± 2.92 µM in the series on FHC normal cells; 405 µM in series [2]. On CDK9, this compound showed an IC50 of 0.18 ± 0.003 µM. In series [2], the “SI selectivity index (CC50/IC50)” value amounted to 1.27. Besides, it took 846 µM to reach half-maximal cytotoxicity in series [3] (CC50).
Turning to `CC(C)(C)Nc1c(-c2ccc(O)cc2O)nc2cnccn12` [Compound 2a, 4-(3-(Tert-butylamino)imidazo[1,2-a]pyrazin-2-yl)benzene-1,3-diol], the IC50 in the series on MCF7 cancer cells was determined as 48.26 ± 0.24 µM; in the series on HCT116 cancer cells, 136.4 ± 0.25 µM; in the series on K652 cancer cells it was 71.05 ± 0.39 µM; in series [1] it was 85.2 µM; against CDK9 it was 0.45 ± 0.008 µM.
Consider `COc1ccc(Nc2c(-c3ccc(N(C)C)nc3)nc3cnccn23)cc1` [Compound 3d, 2-(6-(Dimethylamino)pyridin-3-yl)-N-(4-methoxyphenyl) imidazo[1,2-a]pyrazin-3-amine], for which the IC50 is 120 ± 2.02 µM in the series on MCF7 cancer cells; 147 ± 2.75 µM in the series on HCT116 cancer cells; 153 ± 2.99 µM with K652 cancer cells; 140 µM in series [1]; 1.66 ± 0.034 µM at CDK9.
With `Fc1cc(-c2nc3cnccn3c2NC2CCCCC2)ccn1` [Compound 4b, N-Cyclohexyl-2-(2-fluoropyridin-4-yl) imidazo[1,2-a] pyrazin-3-amine], the IC50 amounted to 16.2 ± 0.41 µM with MCF7 cancer cells; 15.28 ± 0.13 µM in the series with HCT116 cancer cells; 23.2 ± 0.81 µM in the series on K652 cancer cells; 18.2 µM in series [1]; 74.3 ± 1.26 µM with FHC normal cells; 618 µM in series [2]. The same compound displayed an IC50 against CDK9 of 1.22 ± 0.011 µM. The “SI (Selectivity Index) HCT116” value with FHC normal cells is recorded as 4.8. The “SI (Selectivity Index) K652” value in the series with FHC normal cells is listed as 3.2. The “SI (Selectivity Index) MCF7” value in the series on FHC normal cells amounted to 4.5. In series [2], the “SI selectivity index (CC50/IC50)” value is reported as 0.29. The compound also returned a CC50 in series [3] of 174 µM.
Turning to `CN(C)c1ccc(-c2nc3cnccn3c2NC(C)(C)C)cn1` [Compound 3a, N-(Tert-butyl)-2-(6-(dimethylamino)pyridin-3-yl)imidazo[1,2-a]pyrazin-3-amine], the IC50 with MCF7 cancer cells was 22.8 ± 0.33 µM; in the series on HCT116 cancer cells it was 4.13 ± 0.07 µM; in the series with K652 cancer cells, 78.2 ± 1.32 µM; in series [1], 35.1 µM; in series [2], 393 µM; at CDK9, 0.3 ± 0.005 µM. In addition, the “SI selectivity index (CC50/IC50)” value in series [2] is recorded as 0.48. This compound also registered a CC50 in series [3] of 186 µM.
As for `COc1ccc(Nc2c(-c3ccc(O)cc3O)nc3cnccn23)cc1` [Compound 2d, 4-(3-((4-Methoxyphenyl)amino)imidazo[1,2-a]pyrazin-2-yl)benzene-1,3-diol], the IC50 in the series with MCF7 cancer cells amounted to 71.2 ± 0.99 µM; with HCT116 cancer cells it was 104 ± 0.98 µM; in the series with K652 cancer cells, 25.3 ± 0.91 µM; in series [1] it was 66.8 µM; against CDK9 it was 0.89 ± 0.018 µM.
The matching figures for `c1cn2c(NC3CCCCC3)c(-c3ccoc3)nc2cn1` [Compound 1b, N-Cyclohexyl-2-(furan-3-yl) imidazo[1,2-a] pyrazin-3-amine]: 99.2 ± 3.08 µM, 164 ± 2.1 µM, 168 ± 5.99 µM, 144 µM and 1.78 ± 0.029 µM.
Turning to `Fc1cc(-c2nc3cnccn3c2NCc2ccccc2)ccn1` [Compound 4c, N-Benzyl-2-(2-fluoropyridin-4-yl) imidazo[1,2-a] pyrazin-3-amine], the IC50 in the series with MCF7 cancer cells amounted to 67.3 ± 1.01 µM; with HCT116 cancer cells, 97.4 ± 1.46 µM; in the series with K652 cancer cells, 114 ± 1.7 µM; in series [1] it was 92.8 µM; in series [2], 331 µM; at CDK9, 1.11 ± 0.02 µM. Further, the “SI selectivity index (CC50/IC50)” value in series [2] stood at 0.9. Moreover, in series [3], the CC50 worked out at 271 µM.
As to `CN(C)c1ccc(-c2nc3cnccn3c2NCc2ccccc2)cn1` [Compound 3c, N-Benzyl-2-(6-(dimethylamino)pyridin-3-yl)imidazo[1,2-a]pyrazin-3-amine], the IC50 in the series on MCF7 cancer cells turned out to be 9.52 ± 0.15 µM; in the series with HCT116 cancer cells, 42.2 ± 0.68 µM; in the series on K652 cancer cells, 26.4 ± 0.43 µM; in series [1] it was 26 µM; at CDK9 it was 0.33 ± 0.007 µM.
The matching figures for `Oc1ccc(-c2nc3cnccn3c2NCc2ccccc2)c(O)c1` [Compound 2c, 4-(3-(Benzylamino)imidazo[1,2-a]pyrazin-2-yl)benzene-1,3-diol]: 63.5 ± 0.7 µM, 56.56 ± 0.13 µM, 50.2 ± 0.69 µM, 56.8 µM and 0.65 ± 0.011 µM.
For the compound `NC(=O)c1ncn([C@@H]2O[C@H](CO)[C@@H](O)[C@H]2O)n1` [Ribavirin, reference compound], in series [2], the “SI selectivity index (CC50/IC50)” value was 1.4 and the IC50 worked out at 114 µM. Besides, the CC50 in series [3] is 160 µM.
Regarding `CN(C)c1ccc(-c2nc3cnccn3c2NC2CCCCC2)cn1` [Compound 3b, N-Cyclohexyl-2-(6-(dimethylamino)pyridin-3-yl)imidazo[1,2-a]pyrazin-3-amine], the IC50 with MCF7 cancer cells came out at 16.4 ± 0.26 µM; with HCT116 cancer cells it was 11 ± 0.19 µM; in the series on K652 cancer cells, 4.5 ± 0.08 µM; in series [1], 10.7 µM; in the series on FHC normal cells, 95.8 ± 1.72 µM; in series [2] it was 590 µM. At CDK9, this compound registered a half-maximal inhibitory concentration (IC50) of 0.23 ± 0.005 µM. In addition, in the series with FHC normal cells, the “SI (Selectivity Index) HCT116” value came out at 8.7. The “SI (Selectivity Index) K652” value in the series on FHC normal cells was determined as 21.3. Moreover, the “SI (Selectivity Index) MCF7” value in the series on FHC normal cells is 5.8. The “SI selectivity index (CC50/IC50)” value in series [2] amounted to 0.37. The compound also gave a half-maximal cytotoxic concentration (CC50) in series [3] of 213 µM.
In the case of `CC(C)(C)Nc1c(-c2ccnc(F)c2)nc2cnccn12` [Compound 4a, N-(Tert-butyl)-2-(2-fluoropyridin-4-yl) imidazo[1,2-a] pyrazin-3-amine], the IC50 in the series on MCF7 cancer cells was 4.38 ± 0.06 µM; in the series with HCT116 cancer cells it was 38.2 ± 0.51 µM; in the series with K652 cancer cells, 19.6 ± 0.26 µM; in series [1], 20.7 µM; in series [2], 63.3 µM; at CDK9, 0.24 ± 0.004 µM. For the same compound, the “SI selectivity index (CC50/IC50)” value in series [2] worked out at 4.8. This compound returned a 50% cytotoxic concentration (CC50) in series [3] of 303 µM.
For `CN[C@@H]1C[C@H]2O[C@@](C)([C@@H]1OC)n1c3ccccc3c3c4c(c5c6ccccc6n2c5c31)C(=O)NC4` [Staurosporine, reference compound], in the series on MCF7 cancer cells, the IC50 is 18.4 ± 0.4 µM.
`COc1ccc(Nc2c(-c3ccnc(F)c3)nc3cnccn23)cc1` [Compound 4d, 2-(2-Fluoropyridin-4-yl)-N-(4-methoxyphenyl) imidazo[1,2-a]pyrazin-3-amine]: the IC50 in the series with MCF7 cancer cells amounted to 25.1 ± 0.39 µM; with HCT116 cancer cells, 10.2 ± 0.16 µM; with K652 cancer cells, 47.11 ± 0.26 µM; in series [1], 27.5 µM; at CDK9, 0.57 ± 0.011 µM.
The matching figures for `Oc1ccc(-c2nc3cnccn3c2NC2CCCCC2)c(O)c1` [Compound 2b, 4-(3-(Cyclohexylamino)imidazo[1,2-a]pyrazin-2-yl)benzene-1,3-diol]: 45.9 ± 0.67 µM, 7.61 ± 2.12 µM, 38.8 ± 1.16 µM, 30.8 µM and 0.3 ± 0.006 µM.

As a reminder, the IC50 is the midpoint of a concentration-inhibition curve. The CC50 is the concentration that lowers cell viability or growth by half. Read a low CC50 as harm at low concentration.
